28 molecules from ChEMBL document CHEMBL5380808, “Design, Synthesis, and Biological Activity of Marinacarboline Analogues as STAT3 Pathway Inhibitors for Docetaxel-Resistant Triple-Negative Breast Cancer” (J Med Chem, 2023) can be followed below.

Series [1] is described as follows: Cytotoxicity against human MRC5 cells assessed as reduction in cell viability incubated for 72 hrs by sulforhodamine B assay. It is filed as toxicity, cell-based. (In general: In SRB staining, fixed cells bind dye roughly in proportion to their protein.)
In series [2] the test system is MDA-MB-231. In words: Antiproliferative activity against human MDA-MB-231 cells assessed as reduction in cell viability incubated for 72 hrs by sulforhodamine B assay. In kind it is functional, cell-based. As to conditions: MDA-MB-231, 72 h.
Series [3] is described as follows: Selectivity index, ratio of IC50 for cytotoxicity against human MRC5 cells to IC50 for antiproliferative activity against human MDA-MB-231 cells. It is filed as toxicity, cell-based. The following applies: MRC5 cells and MDA-MB-231 cells, read-out: Ratio IC50.
Series [4] deals with Signal transducer and activator of transcription 3 (Homo sapiens) (UniProt P40763). In words: Binding affinity to STAT3 in docetaxel-resistant human MDA-MB-231-DTR cells at 20 uM incubated for 1 hrs by streptavidin bead based pull-down assay. It is filed as cell-based.
Sequence of Signal transducer and activator of transcription 3 (Homo sapiens) (P40763 whole entry): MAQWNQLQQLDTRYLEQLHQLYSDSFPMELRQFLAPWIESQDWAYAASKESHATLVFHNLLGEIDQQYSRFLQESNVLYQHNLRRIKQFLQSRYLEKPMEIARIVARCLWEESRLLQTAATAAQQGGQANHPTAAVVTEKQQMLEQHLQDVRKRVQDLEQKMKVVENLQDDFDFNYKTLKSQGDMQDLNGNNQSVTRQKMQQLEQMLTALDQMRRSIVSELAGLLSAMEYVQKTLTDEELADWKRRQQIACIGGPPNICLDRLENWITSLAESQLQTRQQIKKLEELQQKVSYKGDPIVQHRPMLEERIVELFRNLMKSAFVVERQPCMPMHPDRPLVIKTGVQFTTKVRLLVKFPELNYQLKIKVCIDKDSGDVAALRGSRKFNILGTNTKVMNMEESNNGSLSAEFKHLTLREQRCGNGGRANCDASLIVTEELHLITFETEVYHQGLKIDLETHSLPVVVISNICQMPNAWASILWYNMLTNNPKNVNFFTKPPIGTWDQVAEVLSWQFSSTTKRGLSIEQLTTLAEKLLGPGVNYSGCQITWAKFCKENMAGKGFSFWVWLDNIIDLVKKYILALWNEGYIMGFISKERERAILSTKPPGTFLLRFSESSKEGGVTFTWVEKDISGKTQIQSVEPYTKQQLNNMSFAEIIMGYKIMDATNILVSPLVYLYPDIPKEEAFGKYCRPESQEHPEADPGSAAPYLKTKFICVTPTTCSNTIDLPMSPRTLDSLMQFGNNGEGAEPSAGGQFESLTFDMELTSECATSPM
A short description of series [5]: Antiproliferative activity against docetaxel-resistant human MDA-MB-231-DTR cells assessed as reduction in cell viability incubated for 72 hrs by sulforhodamine B assay. It is filed as functional, cell-based. The following applies: MDA-MB-231, 72 h.
Series [6] can be described thus: Antiproliferative activity against […] cells assessed as reduction in cell viability incubated for 72 hrs by MTT assay. It is filed as functional, cell-based. For orientation: Formazan colour is commonly taken as a measure of viable cells.
The subject of series [7] is MDA-MB-231. In words: Antitumor activity against docetaxel-resistant human MDA-MB-231-DTR cells xenografted in BALB/c mouse assessed as tumor growth inhibition at 5 mg/kg, ip daily for 12 days. The following applies: time 12.0 day. In kind it is functional, organism-based. Background: In xenograft studies the graft and the host belong to different species.
The subject of series [8] is MDA-MB-231. The series is described as follows: Antiproliferative activity against human MDA-MB-231 cells assessed as reduction in cell viability incubated for 72 hrs by MTT assay. It is filed as functional, cell-based. As to conditions: MDA-MB-231, 72 h.
Series [9] deals with Signal transducer and activator of transcription 3 (Homo sapiens) (UniProt P40763). The series is described as follows: Inhibition of STAT3 phosphorylation at Y705 residue in human MDA-MB-231 cells assessed as decrease in phosphorylated STAT3 level at 5 uM incubated for 24 hrs by Western blot analysis. It is filed as cell-based.

Activity calls are given as the source filed them. The rule behind the calls is not given here.

Take `COc1ccc2[nH]cc(CCNC(=O)c3cc4c([nH]c5ccccc54)c(C(C)=O)n3)c2c1`: in series [1], the 50% inhibitory concentration (IC50) (as a rule, the point on the concentration scale where inhibition reaches its midpoint) at 72 h was 39.3 µM. Besides, in the series on MDA-MB-231 [2], the IC50 was found to be 10.8 µM. Also, the selectivity ratio in series [3] turned out to be 3.62.

Turning to `COc1ccc(CNC(=O)c2cc3c([nH]c4ccccc43)c(C(C)=O)n2)cc1`, the IC50 at 72 h in series [1] is above 50 µM. In addition, the IC50 in the series on MDA-MB-231 [2] stood at 16.8 µM. Also, the selectivity ratio in series [3] was above 2.97.

On to `CC(=O)c1nc(C(=O)NCc2ccccc2O)cc2c1[nH]c1ccccc12`, for which, in [1], the IC50 at 72 h was 38.3 µM. Moreover, in the series on MDA-MB-231 [2], the IC50 amounted to 10.3 µM. Besides, the selectivity ratio in series [3] came to 3.7.

On to `O=C(CCCC[C@@H]1SC[C@@H]2NC(=O)N[C@@H]21)NCCn1cc(COc2ccc3[nH]c4c(C(=O)c5ccc(Br)cc5)nc(C(=O)NCCc5c[nH]c6ccccc56)cc4c3c2)nn1`, for which the result in series [4] was Active.

Consider `CC(=O)c1nc(C(=O)NCc2ccc(N)cc2)cc2c1[nH]c1ccccc12`, for which the IC50 in series [5] was 15.5 µM; in the series on MDA-MB-231 [2], 16.3 µM. Moreover, the IC50 at 72 h in [1] was above 50 µM. Also, the selectivity ratio in [3] was above 3.07.

For `CC(=O)c1nc(C(=O)NCCCO)cc2c1[nH]c1ccccc12`, the IC50 at 72 h in [1] came out at 41.2 µM. For the same molecule, the IC50 in the series on MDA-MB-231 [2] is 16.5 µM. Besides, in [3], the selectivity ratio was determined as 2.5.

With `CC(=O)c1nc(C(=O)NCc2ccc(F)cc2)cc2c1[nH]c1ccccc12`, in [1], the IC50 at 72 h is above 50 µM. Further, the IC50 in the series with MDA-MB-231 [2] turned out to be 24.7 µM. Also, in [3], the selectivity ratio was above 2.02.

For the molecule `O=C(NCCc1c[nH]c2ccccc12)c1cc2c([nH]c3ccccc32)c(-c2ccc(O)cc2)n1`, the IC50 at 72 h in series [1] was found to be 46.3 µM. For the same molecule, the IC50 with MDA-MB-231 [2] was determined as 5.68 µM. In [3], the selectivity ratio turned out to be 8.15.

With `CC(=O)c1nc(C(=O)NCCc2c(C)[nH]c3ccccc23)cc2c1[nH]c1ccccc12`, the IC50 at 72 h in series [1] is 41.9 µM. Besides, the IC50 in the series with MDA-MB-231 [2] came out at 11.3 µM. Also, the selectivity ratio in series [3] came to 3.71.

For the molecule `O=C(NCCc1c[nH]c2ccccc12)c1cc2c([nH]c3ccccc32)c(C(=O)c2ccc(Cl)cc2)n1`, in series [1], the IC50 at 72 h was above 50 µM. In addition, the IC50 in the series on MDA-MB-231 [2] came out at 14.7 µM. Further, the selectivity ratio in [3] is above 3.4.

With `CC(=O)O[C@H]1C(=O)[C@@]2(C)[C@H]([C@H](OC(=O)c3ccccc3)[C@]3(O)C[C@H](OC(=O)[C@H](O)[C@@H](NC(=O)c4ccccc4)c4ccccc4)C(C)=C1C3(C)C)[C@]1(OC(C)=O)CO[C@@H]1C[C@@H]2O` [PACLITAXEL], the IC50 in series [6] is 4.68 µM; in the series on MDA-MB-231 [8], 0.07 µM. Moreover, in the series on MDA-MB-231 [7], the outcome was inactive.

Take `CC(=O)c1nc(C(=O)OCCc2c[nH]c3ccccc23)cc2c1[nH]c1ccccc12`: the IC50 in series [5] was 8.48 µM; in the series with MDA-MB-231 [2] it was 9.52 µM. Further, the IC50 at 72 h in [1] was 38.3 µM. In series [3], the selectivity ratio turned out to be 4.02.

As for `CC(=O)c1nc(C(=O)NCc2cccc(O)c2)cc2c1[nH]c1ccccc12`, in series [1], the IC50 at 72 h was above 50 µM. Further, the IC50 in the series on MDA-MB-231 [2] was 27.7 µM. Moreover, the selectivity ratio in series [3] is above 1.81.

Turning to `CC(=O)c1nc(C(=O)NCc2ccc(Cl)cc2)cc2c1[nH]c1ccccc12`, the IC50 at 72 h in series [1] is above 50 µM. For the same molecule, the IC50 in the series on MDA-MB-231 [2] came out at 48.3 µM. Besides, in series [3], the selectivity ratio was above 1.04.

On to `O=C(NCCc1c[nH]c2ccccc12)c1cc2c([nH]c3ccccc32)c(C(=O)c2ccc(O)cc2)n1`, for which the IC50 in series [5] stood at 6.62 µM; in the series on MDA-MB-231 [2], 6.82 µM. The inhibition entry in series [9] is “Active”. The IC50 at 72 h in series [1] was 39.3 µM. Moreover, the selectivity ratio in series [3] is 5.76.

For the molecule `CC(=O)c1nc(C(=O)NCc2ccc3[nH]ccc3c2)cc2c1[nH]c1ccccc12`, the IC50 at 72 h in [1] is above 50 µM. The IC50 in the series with MDA-MB-231 [2] is 14.9 µM. For the same molecule, in series [3], the selectivity ratio is above 3.36.

As to `CC(=O)c1nc(C(=O)NCc2ccc(C(C)(C)C)cc2)cc2c1[nH]c1ccccc12`, the IC50 at 72 h in series [1] was above 50 µM. Moreover, in the series on MDA-MB-231 [2], the IC50 turned out to be 34.2 µM. Moreover, the selectivity ratio in [3] was above 1.46.

Turning to `Cc1ccc(-c2nc(C(=O)NCCc3c[nH]c4ccccc34)cc3c2[nH]c2ccccc23)cc1`, the IC50 at 72 h in series [1] was found to be 42 µM. For the same molecule, in the series with MDA-MB-231 [2], the IC50 was 6.89 µM. The selectivity ratio in series [3] worked out at 6.1.

For the molecule `CC(=O)c1nc(C(=O)Nc2ccc(N)cc2)cc2c1[nH]c1ccccc12`, the IC50 at 72 h in series [1] is above 50 µM. The IC50 in the series with MDA-MB-231 [2] turned out to be 10.8 µM. Also, in [3], the selectivity ratio was above 4.63.

Turning to `CC(=O)c1nc(C(=O)Nc2ccc3[nH]ccc3c2)cc2c1[nH]c1ccccc12`, the half-inhibitory concentration (IC50) at 72 h in [1] was 48.2 µM. Moreover, the IC50 in the series with MDA-MB-231 [2] is 6.98 µM. The selectivity ratio in series [3] was 6.91.

Take `Cc1ccc(C(=O)c2nc(C(=O)NCCc3c[nH]c4ccccc34)cc3c2[nH]c2ccccc23)cc1`: in [1], the IC50 at 72 h stood at 41.2 µM. Further, the IC50 with MDA-MB-231 [2] worked out at 8.29 µM. Further, in series [3], the selectivity ratio is 4.98.

On to `COc1cc([C@@H]2c3cc4c(cc3[C@@H](O[C@@H]3O[C@@H]5CO[C@@H](C)O[C@H]5[C@H](O)[C@H]3O)[C@H]3COC(=O)[C@H]23)OCO4)cc(OC)c1O` [ETOPOSIDE], for which the IC50 at 72 h in [1] came out at 13.5 µM. Further, the IC50 in the series on MDA-MB-231 [2] was 3.66 µM. Moreover, the selectivity ratio in series [3] came to 3.68.

For `CC(=O)c1nc(C(=O)NCCc2c[nH]c3ccc(Cl)cc23)cc2c1[nH]c1ccccc12`, in series [1], the IC50 at 72 h was 36.5 µM. Moreover, the IC50 in the series with MDA-MB-231 [2] was 5.94 µM. In addition, the selectivity ratio in series [3] turned out to be 6.14.

Regarding `CC(=O)c1nc(C(=O)NCCc2c[nH]c3ccccc23)cc2c1[nH]c1ccccc12` [MARINACARBOLINE D], the IC50 was 8.21 µM in series [5] and 7.71 µM with MDA-MB-231 [2]. Moreover, the IC50 at 72 h in series [1] turned out to be 27.2 µM. Besides, the selectivity ratio in series [3] stood at 3.53.

Take `O=C(NCCc1c[nH]c2ccccc12)c1cc2c([nH]c3ccccc32)c(-c2ccc(Br)cc2)n1`: the IC50 in [5] amounted to 6.81 µM; with MDA-MB-231 [2], 7.06 µM. For the same molecule, the inhibition result in [9] is “Active”. Besides, the IC50 at 72 h in series [1] was 48.8 µM. Besides, in series [3], the selectivity ratio came out at 6.19.

On to `CC(=O)c1nc(C(=O)NCc2ccc(O)cc2)cc2c1[nH]c1ccccc12`, for which the IC50 worked out at 3.66 µM in [5] and 3.51 µM with MDA-MB-231 [2]. In series [1], the IC50 at 72 h is above 50 µM. Further, the selectivity ratio in series [3] is above 14.2.

As to `CC(=O)c1nc(C(=O)NC(C)C)cc2c1[nH]c1ccccc12`, the IC50 at 72 h in series [1] was above 50 µM. Besides, the IC50 in the series on MDA-MB-231 [2] was 37.3 µM. Further, the selectivity ratio in series [3] is above 1.34.

Consider `CC(=O)c1nc(C(=O)NCc2c[nH]c3ccccc23)cc2c1[nH]c1ccccc12`, for which the IC50 at 72 h in [1] was above 50 µM. Also, the IC50 with MDA-MB-231 [2] was found to be 14.3 µM. Further, the selectivity ratio in [3] is above 3.51.
